From US10183936B2, “Hepatitis B core protein allosteric modulators” (priority 2014, dated 2019)

Legend:
AD38 cells = assay: Viability of AD38 cells (Promega CellTiter-Glo) at the end of compound treatment; assay type: cell-based; settings: 10 μM compound, 6 days, luminescence normalized against DMSO control wells (controls being 100%)
Method: (§1) Example 56: Assay Measuring Activity of Compounds on Viral Production in and on Viability of AD38 Cells
(§2) AD38 cells were then re-suspended with 10 mL of Treatment Medium and counted. Wells of a collagen coated 96-well NUNC microtiter plate were seeded at 50,000/well in 180 μL of Treatment Medium, and 20 μL of in treatment media with either 10% DMSO (Control) or a 10× solution of compound in 10% DMSO was added. Plates were incubated for 6 days at 37° C.
At the end of compound treatment period cell viability was assessed using a Promega CellTiter-Glo protocol. All supernatant was removed the previously treated 96-well microtiter plate, and 50 μL Tetracycline-free treatment medium (DMEM/F12 (1:1), lx Pen/step (cat#: 30-002-CL, Mediatech, Inc), with 2% FBS, Tet-system approved (cat#: 631106, Clontech), and 1% DMSO was added back to each well. Another 50 μL of CellTiter-Glo reagent solution (Promega, G7573) was then added at room temperature and the contents mixed for 2 minutes on an orbital shaker to induce cell lysis. This was followed by incubation at room temperature for 10 minutes to stabilize the luminescent signal. The luminescence was recorded for 0.2 seconds per well on a Tecan multimode platereader (Infinite M1000 pro). The luminescent signal from each well was normalized against that of untreated (DMSO) control wells. All results were reported percent viability (with controls being 100%).

[1] = tested on: HBV viral production in AD38 cells; assay: Viral load production in AD38 cells by quantitative PCR of the HBV core sequence in supernatant; assay type: cell-based; settings: Hepatitis B virus, 144 h; 10 μM compound, 6 days at 37° C., viral load in supernatant compared against DMSO control wells; read-out: AD38 Viral Load (CpAM/DMSO %) at 10 μM
Method: as §1, §2
Viral load production was assayed by quantitative PCR of the core sequence. Briefly, 5 μL of clarified supematant was added to a PCR reaction mixture that contained forward primers HBV-f 5′-CTGTGCCTTGGGTGGCTTT-3′, Reverse primers HBV-r 5′-[…]-3′ and Fluorescent TaqMan™ Probes HBV-probe 5′-FAM/AGCTCCAAA/ZEN/[…]/3IABkFQ-3′ in Quanta Biosciences PerfeCTa® qPCR Toughmix®, and was subsequently on an Applied Biosystems VIIA7 in a final volume of 20 μL. The PCR mixture was incubated at 45° C. for 5 minutes, then 95° C. for 10 min, followed by 40 cycles of 10 seconds at 95° C. and 20 seconds at 60° C. Viral load was quantitated against known standards by using ViiA™ 7 Software. Viral load in the supematant from wells with treated cells were compared against viral load in supernatant from DMSO control wells (≥3 per plate).

Row | SMILES | AD38 Viability Normalized Result (CPAM/DMSO %) at 10 μM (AD38 cells) | activity at 10 µM [1]
1 | NS(=O)(=O)c1ccc(CCNC(=O)c2ccc3c(c2)NC(=O)c2ccccc2S3)cc1 [Compound 1101] | 107% | 15%
2 | CN(C)S(=O)(=O)c1ccc(CCNC(=O)c2ccc3c(c2)NC(=O)c2ccccc2S3)cc1 [Compound 1102] | 100% | 1%
3 | CS(=O)(=O)c1ccc(CCNC(=O)c2ccc3c(c2)NC(=O)c2ccccc2S3)cc1 [Compound 1103] | 87% | 2%
4 | O=C(NCCc1ccccc1)c1ccc2c(c1)NC(=O)c1ccccc1S2 [Compound 1104] | 85% | 1%
5 | O=C(NCCC1CCCCC1)c1ccc2c(c1)NC(=O)c1ccccc1S2 [Compound 1105] | 101% | 1%
6 | O=C(NCc1ccccc1)c1ccc2c(c1)NC(=O)c1ccccc1S2 [Compound 1107] | 106% | 2%
7 | O=C(NCCCc1ccccc1)c1ccc2c(c1)NC(=O)c1ccccc1S2 [Compound 1108] | 105% | 1%
8 | O=C(NCCCCc1ccccc1)c1ccc2c(c1)NC(=O)c1ccccc1S2 [Compound 1109] | 99% | 6%
9 | O=C(NCCc1ccc2ccccc2c1)c1ccc2c(c1)NC(=O)c1ccccc1S2 [Compound 1110] | 119% | 2%
10 | O=C(NCCc1ccc(-c2ccccc2)cc1)c1ccc2c(c1)NC(=O)c1ccccc1S2 [Compound 1111] | 89% | 2%
11 | O=C(NCc1ccc(-c2ccccc2)cc1)c1ccc2c(c1)NC(=O)c1ccccc1S2 [Compound 1112] | 73% | 4%
12 | O=C(NCCc1ccc(F)cc1)c1ccc2c(c1)NC(=O)c1ccccc1S2 [Compound 1113] | 99% | 1%
13 | COc1ccc(CCNC(=O)c2ccc3c(c2)NC(=O)c2ccccc2S3)cc1 [Compound 1114] | 104% | 1%
14 | O=C(NCCc1ccc(O)cc1)c1ccc2c(c1)NC(=O)c1ccccc1S2 [Compound 1115] | 106% | 1%
15 | COC(=O)c1ccc(CCNC(=O)c2ccc3c(c2)NC(=O)c2ccccc2S3)cc1 [Compound 1117] | 108% | 67%
16 | O=C(NCCc1cccc(O)c1)c1ccc2c(c1)NC(=O)c1ccccc1S2 [Compound 1118] | 95% | 61%
17 | N#Cc1ccc(CCNC(=O)c2ccc3c(c2)NC(=O)c2ccccc2S3)cc1 [Compound 1120] | 94% | 7%
18 | O=C(NCCc1ccc(N2CCCCC2)cc1)c1ccc2c(c1)NC(=O)c1ccccc1S2 [Compound 1121] | 109% | 6%
19 | O=C(NCCc1ccc(Br)cc1)c1ccc2c(c1)NC(=O)c1ccccc1S2 [Compound 1122] | 86% | 21%
20 | CCCCNC(=O)c1ccc2c(c1)NC(=O)c1ccccc1S2 [Compound 1123] | 95% | 62%
21 | COc1cccc(CCNC(=O)c2ccc3c(c2)NC(=O)c2ccccc2S3)c1 [Compound 1124] | 99% | 80%
22 | COc1ccc(CCNC(=O)c2ccc3c(c2)NC(=O)c2ccccc2S3)cc1OC [Compound 1125] | 108% | 20%
23 | COc1ccccc1CCNC(=O)c1ccc2c(c1)NC(=O)c1ccccc1S2 [Compound 1127] | 94% | 22%
24 | O=C(NCCc1cccc(F)c1)c1ccc2c(c1)NC(=O)c1ccccc1S2 [Compound 1130] | 101% | 2%

Row | SMILES | AD38 Viability Normalized Result (CPAM/DMSO %) at 10 μM (AD38 cells) | activity at 10 µM [1]
25 | CN1C(=O)c2ccccc2Sc2ccc(C(=O)NCCc3cccc(O)c3)cc21 [Compound 1133] | 99% | 94%
26 | O=C(NCCCCc1ccncc1)c1ccc2c(c1)NC(=O)c1ccccc1S2 [Compound 1149] | 118% | 5%
27 | O=C(NCCCCC1CCCCC1)c1ccc2c(c1)NC(=O)c1ccccc1S2 [Compound 1150] | 22% | 1%
28 | CCCCCCNC(=O)c1ccc2c(c1)NC(=O)c1ccccc1S2 [Compound 1151] | 50% | 1%
29 | CCCCCCCCNC(=O)c1ccc2c(c1)NC(=O)c1ccccc1S2 [Compound 1152] | 45% | 1%
30 | CN(C)CCOc1ccc(CCNC(=O)c2ccc3c(c2)NC(=O)c2ccccc2S3)cc1 [Compound 1154] | 50% | 90%
31 | CN(C)CCCOc1ccc(CCNC(=O)c2ccc3c(c2)NC(=O)c2ccccc2S3)cc1.Cl [Compound 1155] | 103% | 18%
32 | CCOc1ccccc1CCNC(=O)c1ccc2c(c1)NC(=O)c1ccccc1S2 [Compound 1156] | 106% | 16%
33 | CCOc1cccc(CCNC(=O)c2ccc3c(c2)NC(=O)c2ccccc2S3)c1 [Compound 1157] | 48% | 1%
34 | Cc1ccccc1CCNC(=O)c1ccc2c(c1)NC(=O)c1ccccc1S2 [Compound 1158] | 120% | 37%
35 | COc1ccccc1CNC(=O)c1ccc2c(c1)NC(=O)c1ccccc1S2 [Compound 1159] | 92% | 8%
36 | COc1cccc(CNC(=O)c2ccc3c(c2)NC(=O)c2ccccc2S3)c1 [Compound 1160] | 105% | 2%
37 | COc1ccc(CNC(=O)c2ccc3c(c2)NC(=O)c2ccccc2S3)cc1 [Compound 1161] | 99% | 1%
38 | O=C(NCc1ccc(OC(F)(F)F)cc1)c1ccc2c(c1)NC(=O)c1ccccc1S2 [Compound 1162] | 99% | 61%
39 | Cc1cccc(CNC(=O)c2ccc3c(c2)NC(=O)c2ccccc2S3)c1 [Compound 1163] | 104% | 3%
40 | Cc1ccc(CNC(=O)c2ccc3c(c2)NC(=O)c2ccccc2S3)cc1 [Compound 1164] | 103% | 27%
41 | CC(C)(C)c1ccc(CNC(=O)c2ccc3c(c2)NC(=O)c2ccccc2S3)cc1 [Compound 1165] | 82% | 5%
42 | O=C(NCc1cccc(C(F)(F)F)c1)c1ccc2c(c1)NC(=O)c1ccccc1S2 [Compound 1166] | 119% | 10%
43 | O=C(NCc1ccccc1F)c1ccc2c(c1)NC(=O)c1ccccc1S2 [Compound 1167] | 124% | 57%
44 | O=C(NCc1cccc(F)c1)c1ccc2c(c1)NC(=O)c1ccccc1S2 [Compound 1168] | 117% | 10%
45 | O=C(NCC1CCCCC1)c1ccc2c(c1)NC(=O)c1ccccc1S2 [Compound 1169] | 107% | 39%
46 | O=C(NCCC12CC3CC(CC(C3)C1)C2)c1ccc2c(c1)NC(=O)c1ccccc1S2 [Compound 1170] | 95% | 1%
47 | COCCNC(=O)c1ccc2c(c1)NC(=O)c1ccccc1S2 [Compound 1171] | 103% | 49%
48 | O=C(NCCO)c1ccc2c(c1)NC(=O)c1ccccc1S2 [Compound 1172] | 107% | 51%
